# Counter-ions that a name gives are not always drawn.
# Tests used:
# D(4) dopamine receptor = target: T1, D(4) dopamine receptor (Homo sapiens, UniProt P21917); assay: (§1) PDSP Secondary Binding target: DRD4 - Compounds are tested at 10 uM concentration, plate are incubated at room temperature in the dark for 90 minutes. Reaction are stopped by vacuum filtration onto 0.3% polyethyleneimine soaked filter mats using Filtermate harvester. Scintillation cocktail is then melted onto microwave-dried filters on a hot plate and the radio activity is counted in Microbia counter.
# T1 sequence (P21917 whole entry): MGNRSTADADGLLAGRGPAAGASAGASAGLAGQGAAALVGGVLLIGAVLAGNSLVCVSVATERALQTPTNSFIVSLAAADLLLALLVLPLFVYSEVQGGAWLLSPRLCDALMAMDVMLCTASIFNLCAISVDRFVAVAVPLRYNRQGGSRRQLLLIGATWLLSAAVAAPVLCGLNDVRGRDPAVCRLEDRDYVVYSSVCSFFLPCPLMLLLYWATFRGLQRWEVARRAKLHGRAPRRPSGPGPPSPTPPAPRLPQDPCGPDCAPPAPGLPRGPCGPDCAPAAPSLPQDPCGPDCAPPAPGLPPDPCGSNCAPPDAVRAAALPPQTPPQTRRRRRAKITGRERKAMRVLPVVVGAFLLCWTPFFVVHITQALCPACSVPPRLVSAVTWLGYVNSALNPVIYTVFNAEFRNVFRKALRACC
# Mu-type opioid receptor = Mu-type opioid receptor (Homo sapiens, UniProt P35372); assay: as §1, with “OPRM1” for “DRD4”
# Chain of Mu-type opioid receptor (P35372 whole entry): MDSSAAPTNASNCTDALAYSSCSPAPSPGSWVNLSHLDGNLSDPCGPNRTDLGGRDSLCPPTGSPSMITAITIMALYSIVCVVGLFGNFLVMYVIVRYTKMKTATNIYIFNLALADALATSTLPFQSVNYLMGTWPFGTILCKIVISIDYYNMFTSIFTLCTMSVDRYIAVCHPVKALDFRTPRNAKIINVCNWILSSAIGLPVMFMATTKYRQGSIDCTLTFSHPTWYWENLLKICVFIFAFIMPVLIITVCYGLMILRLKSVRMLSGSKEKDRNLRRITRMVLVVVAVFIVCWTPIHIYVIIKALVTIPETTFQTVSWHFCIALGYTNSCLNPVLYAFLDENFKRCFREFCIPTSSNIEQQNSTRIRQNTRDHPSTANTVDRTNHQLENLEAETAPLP
# [1] = target: 5-hydroxytryptamine receptor 2B (Homo sapiens, UniProt P41595); assay: as §1, with “HTR2B” for “DRD4”
# Chain of 5-hydroxytryptamine receptor 2B (P41595 whole entry): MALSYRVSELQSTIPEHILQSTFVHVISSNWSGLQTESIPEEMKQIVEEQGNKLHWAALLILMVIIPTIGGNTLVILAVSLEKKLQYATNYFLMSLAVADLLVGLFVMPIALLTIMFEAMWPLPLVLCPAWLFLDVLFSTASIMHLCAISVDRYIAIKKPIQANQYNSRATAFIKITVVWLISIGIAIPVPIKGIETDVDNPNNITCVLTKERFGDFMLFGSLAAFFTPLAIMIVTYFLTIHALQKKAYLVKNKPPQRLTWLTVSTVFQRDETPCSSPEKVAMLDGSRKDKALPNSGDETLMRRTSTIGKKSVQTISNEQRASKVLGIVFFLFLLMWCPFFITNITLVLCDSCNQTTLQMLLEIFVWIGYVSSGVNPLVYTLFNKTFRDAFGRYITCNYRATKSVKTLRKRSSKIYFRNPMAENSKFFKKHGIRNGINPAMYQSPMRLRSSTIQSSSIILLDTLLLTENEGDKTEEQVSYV
# [2] = target: Sodium-dependent dopamine transporter (Homo sapiens, UniProt Q01959); assay: as §1, with “SLC6A3” for “DRD4”
# Chain of Sodium-dependent dopamine transporter (Q01959 whole entry): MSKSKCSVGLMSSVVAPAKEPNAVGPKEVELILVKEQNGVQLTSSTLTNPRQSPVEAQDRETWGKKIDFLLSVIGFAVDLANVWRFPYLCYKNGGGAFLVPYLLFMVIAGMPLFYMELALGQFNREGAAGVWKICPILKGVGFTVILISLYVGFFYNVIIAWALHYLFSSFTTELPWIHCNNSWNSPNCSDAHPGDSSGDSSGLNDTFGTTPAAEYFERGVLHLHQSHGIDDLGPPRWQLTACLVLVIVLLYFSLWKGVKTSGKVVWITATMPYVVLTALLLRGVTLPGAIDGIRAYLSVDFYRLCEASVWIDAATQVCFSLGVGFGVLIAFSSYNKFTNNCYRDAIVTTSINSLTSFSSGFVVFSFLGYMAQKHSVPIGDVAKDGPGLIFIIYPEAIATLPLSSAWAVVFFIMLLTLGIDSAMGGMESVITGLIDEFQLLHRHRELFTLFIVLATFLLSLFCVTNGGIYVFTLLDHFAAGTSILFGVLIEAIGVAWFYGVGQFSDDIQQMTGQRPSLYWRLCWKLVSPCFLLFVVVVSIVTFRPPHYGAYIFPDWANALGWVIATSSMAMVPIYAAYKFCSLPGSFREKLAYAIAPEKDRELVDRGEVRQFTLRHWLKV
# [3] = target: Sodium-dependent serotonin transporter (Homo sapiens, UniProt P31645); assay: as §1, with “SLC6A4” for “DRD4”
# Chain of Sodium-dependent serotonin transporter (P31645 whole entry): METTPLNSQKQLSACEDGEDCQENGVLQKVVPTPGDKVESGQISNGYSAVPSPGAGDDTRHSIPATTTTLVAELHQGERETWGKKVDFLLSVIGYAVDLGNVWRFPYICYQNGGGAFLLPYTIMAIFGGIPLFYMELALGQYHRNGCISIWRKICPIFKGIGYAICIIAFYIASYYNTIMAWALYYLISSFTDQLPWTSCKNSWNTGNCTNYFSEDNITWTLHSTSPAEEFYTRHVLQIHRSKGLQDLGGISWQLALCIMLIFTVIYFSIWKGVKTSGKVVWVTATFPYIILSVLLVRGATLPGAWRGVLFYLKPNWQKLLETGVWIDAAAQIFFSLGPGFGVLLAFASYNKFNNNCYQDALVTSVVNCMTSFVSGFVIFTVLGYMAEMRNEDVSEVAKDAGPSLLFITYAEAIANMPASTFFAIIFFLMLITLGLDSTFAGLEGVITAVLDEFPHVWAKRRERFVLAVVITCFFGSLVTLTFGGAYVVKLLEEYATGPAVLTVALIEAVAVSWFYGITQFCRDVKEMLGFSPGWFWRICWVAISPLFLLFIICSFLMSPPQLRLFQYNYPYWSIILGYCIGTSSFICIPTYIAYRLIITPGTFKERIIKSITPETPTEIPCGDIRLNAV
# [4] = target: T2, Alpha-2C adrenergic receptor (Homo sapiens, UniProt P18825); assay: as §1, with “ADRA2C” for “DRD4”
# T2 sequence (P18825 whole entry): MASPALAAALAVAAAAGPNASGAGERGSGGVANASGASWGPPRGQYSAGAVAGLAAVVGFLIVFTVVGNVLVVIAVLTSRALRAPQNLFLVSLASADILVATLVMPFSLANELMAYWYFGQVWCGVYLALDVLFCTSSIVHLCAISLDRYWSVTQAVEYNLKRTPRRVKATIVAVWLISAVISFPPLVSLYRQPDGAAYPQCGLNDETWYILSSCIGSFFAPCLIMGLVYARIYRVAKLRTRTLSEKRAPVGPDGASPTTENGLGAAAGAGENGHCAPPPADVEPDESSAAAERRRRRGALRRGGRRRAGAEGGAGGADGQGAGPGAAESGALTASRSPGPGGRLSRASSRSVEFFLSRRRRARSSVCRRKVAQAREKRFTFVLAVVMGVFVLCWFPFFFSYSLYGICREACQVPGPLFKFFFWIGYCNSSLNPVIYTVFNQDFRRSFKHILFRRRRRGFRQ
# [5] = target: 5-hydroxytryptamine receptor 1E (Homo sapiens, UniProt P28566); assay: as §1, with “HTR1E” for “DRD4”
# Chain of 5-hydroxytryptamine receptor 1E (P28566 whole entry): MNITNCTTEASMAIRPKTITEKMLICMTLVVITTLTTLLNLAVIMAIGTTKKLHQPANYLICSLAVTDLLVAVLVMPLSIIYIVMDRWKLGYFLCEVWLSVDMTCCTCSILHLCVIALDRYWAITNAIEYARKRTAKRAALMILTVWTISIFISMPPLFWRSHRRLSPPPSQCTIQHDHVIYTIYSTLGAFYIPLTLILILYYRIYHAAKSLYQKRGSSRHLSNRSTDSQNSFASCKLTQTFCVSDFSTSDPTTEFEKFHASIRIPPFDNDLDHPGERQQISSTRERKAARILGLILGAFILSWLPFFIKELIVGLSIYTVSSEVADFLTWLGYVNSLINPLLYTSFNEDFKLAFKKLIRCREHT
# Histamine H1 receptor = Histamine H1 receptor (Homo sapiens, UniProt P35367); assay: as §1, with “HRH1” for “DRD4”
# Chain of Histamine H1 receptor (P35367 whole entry): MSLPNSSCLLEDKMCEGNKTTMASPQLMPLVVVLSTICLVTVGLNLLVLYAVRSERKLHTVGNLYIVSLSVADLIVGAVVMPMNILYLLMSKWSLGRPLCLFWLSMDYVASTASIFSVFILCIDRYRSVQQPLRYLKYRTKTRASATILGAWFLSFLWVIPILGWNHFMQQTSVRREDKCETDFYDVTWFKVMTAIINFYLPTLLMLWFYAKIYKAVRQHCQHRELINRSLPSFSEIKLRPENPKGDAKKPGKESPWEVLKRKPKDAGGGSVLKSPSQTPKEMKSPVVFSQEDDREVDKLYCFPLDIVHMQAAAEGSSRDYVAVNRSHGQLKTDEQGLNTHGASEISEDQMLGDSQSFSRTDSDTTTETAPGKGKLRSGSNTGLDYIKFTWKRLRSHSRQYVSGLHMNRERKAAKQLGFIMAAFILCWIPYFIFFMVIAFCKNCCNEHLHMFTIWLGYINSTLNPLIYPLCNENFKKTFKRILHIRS
# [6] = target: T3, Muscarinic acetylcholine receptor M5 (Homo sapiens, UniProt P08912); assay: as §1, with “CHRM5” for “DRD4”
# T3 sequence (P08912 whole entry): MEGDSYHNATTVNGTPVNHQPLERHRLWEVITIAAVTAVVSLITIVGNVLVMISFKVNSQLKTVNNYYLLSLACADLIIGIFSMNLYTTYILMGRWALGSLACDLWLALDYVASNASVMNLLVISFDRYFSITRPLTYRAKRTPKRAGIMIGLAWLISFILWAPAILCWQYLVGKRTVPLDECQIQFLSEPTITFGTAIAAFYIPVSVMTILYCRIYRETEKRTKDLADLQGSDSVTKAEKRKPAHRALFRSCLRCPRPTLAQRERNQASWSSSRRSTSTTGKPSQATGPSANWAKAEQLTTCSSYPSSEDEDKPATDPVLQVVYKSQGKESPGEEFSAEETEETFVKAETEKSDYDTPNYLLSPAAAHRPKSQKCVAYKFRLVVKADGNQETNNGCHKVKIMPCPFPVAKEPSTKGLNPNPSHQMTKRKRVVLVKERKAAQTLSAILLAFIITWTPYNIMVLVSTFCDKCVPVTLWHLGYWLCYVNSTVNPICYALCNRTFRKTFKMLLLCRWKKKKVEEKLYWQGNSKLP
# [7] = target: Muscarinic acetylcholine receptor M3 (Homo sapiens, UniProt P20309); assay: as §1, with “CHRM3” for “DRD4”
# Chain of Muscarinic acetylcholine receptor M3 (P20309 whole entry): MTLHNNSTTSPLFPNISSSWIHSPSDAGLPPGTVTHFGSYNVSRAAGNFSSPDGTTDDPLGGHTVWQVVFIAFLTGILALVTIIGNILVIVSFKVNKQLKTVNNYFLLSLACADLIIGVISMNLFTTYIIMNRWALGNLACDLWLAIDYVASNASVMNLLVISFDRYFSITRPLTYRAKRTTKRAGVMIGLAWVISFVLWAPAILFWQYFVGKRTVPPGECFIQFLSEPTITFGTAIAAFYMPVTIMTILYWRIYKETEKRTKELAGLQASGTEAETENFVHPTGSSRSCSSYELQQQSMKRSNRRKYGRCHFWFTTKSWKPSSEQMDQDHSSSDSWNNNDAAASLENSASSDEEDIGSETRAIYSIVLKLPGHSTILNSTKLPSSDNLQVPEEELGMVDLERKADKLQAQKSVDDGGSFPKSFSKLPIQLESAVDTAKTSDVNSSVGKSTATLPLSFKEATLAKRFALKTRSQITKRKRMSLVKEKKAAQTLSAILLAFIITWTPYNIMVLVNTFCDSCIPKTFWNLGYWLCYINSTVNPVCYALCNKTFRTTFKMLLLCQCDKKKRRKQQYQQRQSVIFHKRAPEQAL
# D(1A) dopamine receptor = D(1A) dopamine receptor (Homo sapiens, UniProt P21728); assay: as §1, with “DRD1” for “DRD4”
# Chain of D(1A) dopamine receptor (P21728 whole entry): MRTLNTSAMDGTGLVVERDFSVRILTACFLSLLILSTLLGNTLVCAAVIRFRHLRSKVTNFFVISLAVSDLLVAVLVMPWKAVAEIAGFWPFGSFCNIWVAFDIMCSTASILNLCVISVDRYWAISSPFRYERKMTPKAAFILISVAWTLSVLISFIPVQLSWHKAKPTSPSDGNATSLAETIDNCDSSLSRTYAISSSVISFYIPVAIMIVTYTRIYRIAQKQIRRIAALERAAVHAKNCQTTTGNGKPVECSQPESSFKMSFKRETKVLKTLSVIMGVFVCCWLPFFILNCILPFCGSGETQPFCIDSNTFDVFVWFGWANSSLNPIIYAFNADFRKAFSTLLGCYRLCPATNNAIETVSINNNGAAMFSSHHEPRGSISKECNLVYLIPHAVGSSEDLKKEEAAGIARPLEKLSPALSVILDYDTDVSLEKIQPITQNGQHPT
Structure (SMILES),Ki (D(4) dopamine receptor) [µM],Ki (Mu-type opioid receptor) [µM],Ki [1] [µM],Ki [2] [µM],Ki [3] [µM],Ki [4] [µM],Ki [5] [µM],Ki (Histamine H1 receptor) [µM],Ki [6] [µM],Ki [7] [µM],Ki (D(1A) dopamine receptor) [µM]
CCCCCNC(=N)N/N=C/c1c[nH]c2ccc(OC)cc12 [TEGASEROD MALEATE],0.191,2.85,0.0156,,,,,,,,
COc1ccc(NC(=O)c2ccc(-c3ccc(-c4noc(C)n4)cc3C)cc2)cc1OCCN(C)C,,,,0.984,0.833,0.704,0.981,,,,
CN1C[C@H](C(=O)N[C@]2(C)O[C@@]3(O)[C@@H]4CCCN4C(=O)[C@H](Cc4ccccc4)N3C2=O)C[C@@H]2c3cccc4[nH]cc(c34)C[C@H]21 [DIHYDROERGOTAMINE MESYLATE],0.0328,0.154,,,,,0.682,,,,
Clc1cccc(COc2cncc(N3CCNCC3)n2)c1,,,0.00994,,,,1.45,1.45,0.293,0.851,
Cc1nc(-c2ccc(-c3ccc(C(=O)N4CCc5cc6c(cc54)C4(CCN(C)CC4)CO6)cc3)c(C)c2)no1 [SB-224289],,,,1.18,,,,,0.344,0.926,0.369
O=S1(=O)c2cccc3cccc(c23)N1CCCN1CCN(c2ccc(F)cc2)CC1 [FANANSERIN],0.0957,,,2.69,1.1,1.03,,0.0306,,,
CN1CCCC(n2nc(Cc3ccc(Cl)cc3)c3ccccc3c2=O)CC1 (stereo unspecified) [AZELASTINE HYDROCHLORIDE],,,,,,,5.37,,,> 10,0.577
CN1CCN(c2ccc(Nc3c4ccccc4nc4ccccc34)cc2)CC1,,,,0.451,1.15,,,0.403,,,4.54
Cc1ccc2c(c1)c1c(n2CCc2ccc(C)nc2)CCN(C)C1 [LATREPIRDINE],,,0.603,,,2.92,5.57,,,,
CN(C)C(=O)N[C@H]1CC[C@H](CCN2CCN(c3cccc(Cl)c3Cl)CC2)CC1 [CARIPRAZINE HYDROCHLORIDE],,,,,,0.234,,,1.43,,
Cc1c(P(=S)(c2ccccc2)c2ccccc2)n2ccccc2[n+]1C/C=C/c1ccccc1,,0.102,,,,0.222,,> 10,0.51,1.14,

# Second part, the compound after the results:
Ki (D(4) dopamine receptor) [µM],Ki (Mu-type opioid receptor) [µM],Ki [1] [µM],Ki [2] [µM],Ki [3] [µM],Ki [4] [µM],Ki [5] [µM],Ki (Histamine H1 receptor) [µM],Ki [6] [µM],Ki [7] [µM],Ki (D(1A) dopamine receptor) [µM],Structure (SMILES)
1.58,,2.09,,,0.36,,3.53,,,,C[C@H](Cc1cc2c(c(C(N)=O)c1)N(CCCO)CC2)NCCOc1ccccc1OCC(F)(F)F [SILODOSIN]
,,0.528,,> 10,,,,2.64,4.13,,COc1cc(-n2cnc3cc(-c4ccc(Cl)cc4)sc3c2=O)ccc1OCCN1CCCC1
0.036,,,0.364,0.0656,0.0599,0.478,0.00888,,,0.0375,O=c1ccc2ccc(OCCCCN3CCN(c4cccc5sccc45)CC3)cc2[nH]1 [BREXPIPRAZOLE]
,,,0.295,0.209,0.536,,0.649,0.491,,1.72,S=C(NCCCc1c[nH]cn1)NCCCN(Cc1ccc(Cl)c(Cl)c1)c1ccc(Br)cn1
1.08,,,0.149,,,,,0.971,,,OCc1cc(C(O)CNCCCCCCOCCCCc2ccccc2)ccc1O (stereo unspecified) [SALMETEROL]
0.238,0.344,,0.318,0.568,0.375,0.556,0.0122,,,0.33,Cc1nc2sccn2c(=O)c1CCN1CCC(=C(c2ccc(F)cc2)c2ccc(F)cc2)CC1 [RITANSERIN]
0.326,,,,,0.359,,0.125,,,,CCc1nn(CCCN2CCN(c3cccc(Cl)c3)CC2)c(=O)n1CCOc1ccccc1 [NEFAZODONE HYDROCHLORIDE]
,0.495,0.227,,,,,,,,,CCc1ccc(OCc2ccccc2C(=O)Nc2ccc3nc(C)cc(N)c3c2)cc1
0.824,0.73,0.065,0.0218,,1.38,,0.364,,,,N#Cc1ccc2[nH]cc(CCCCN3CCN(c4ccc5oc(C(N)=O)cc5c4)CC3)c2c1 [VILAZODONE HYDROCHLORIDE]
,0.129,,0.591,0.862,,,0.0897,0.718,2.15,0.37,COC(=O)C1=C(C)NC(C)=C(C(=O)OCCCN2CCC(c3ccccc3)(c3ccccc3)CC2)[C@H]1c1cccc([N+](=O)[O-])c1 [NIGULDIPINE]
